Data on 80 molecules can be found in the METLIN SMRT retention time set (Domingo-Almenara et al. 2019).

The structures appear in SMILES notation.

The series can be described thus: gradient 5% acetonitrile 3 min, to 50% in 2 min, to 85% in 15 min, held 3 min, 100 µL/min. The following applies: column: Zorbax Extend-C18 2.1 x 50 mm; eluents: water / acetonitrile, 0.1% formic acid. In a few lines: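 Retention times of pure standards were taken from adduct peaks that were selected by computer and manually inspected. Over 3 months, mixtures of ~100 molecules were run by HPLC–quadrupole time-of-flight mass spectrometry in positive and negative ionization mode. The Zorbax Extend-C18 column (2.1 × 50 mm, 1.8 μm) ran at 100 μL/min in water and acetonitrile, each containing 0.1% formic acid, with 40 μL dead volume and 900 μL dwell volume.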
Molecule `Cc1nc(N2CCCC2)cc(N2CCN(C(=O)c3ccc(Br)o3)CC2)n1` yielded an RP-LC retention time of 645 s.

`COc1cc(C(O)CCBr)c(OC)cc1C` (stereo not given) had an RP-LC retention time of 1020 s.

With `Cc1cc(C(=O)NC2CCCC2)c2cccc(Cl)c2n1`, the RP-LC retention time stood at 840 s.

The molecule `CCN1CCN(C(=O)C2CCN(CCc3cn(CC)c4ncccc34)CC2)CC1` gave an RP-LC retention time of 525 s.

As for `COc1ccc(-c2nc(C3CC(=O)N(c4ccc(Cl)cc4)C3)no2)cc1` (stereo not given), the RP-LC retention time was determined as 1060 s.

Take `O=C(Cn1c(=O)oc2ccccc21)N1CCC(c2noc(-c3cccnc3)n2)C1` (stereo not given): the RP-LC retention time was determined as 702 s.

With `c1ccc(COCCc2noc(C3CN(Cc4ccccc4)C3)n2)cc1`, the RP-LC retention time came out at 693 s.

Consider `COc1cn(CC(=O)Nc2cccc(C)c2C)c(CN2CCCCCC2)cc1=O`, for which the RP-LC retention time is 574 s.

Regarding `Cc1ccc(C)c(S(=O)(=O)Nc2ccc(C(=O)Nc3ccccc3F)cc2)c1`, the RP-LC retention time was determined as 863 s.

Molecule `COc1ccc(NC(=O)C2CCN(S(=O)(=O)c3cc(C(=O)N4CCOCC4)cs3)CC2)cc1` displayed an RP-LC retention time of 721 s.

`COc1cccc(-n2cc(C(=O)OCC(=O)OC(C)C)c3ccccc3c2=O)c1` showed an RP-LC retention time of 1060 s.

The molecule `COCC1(O)CCOC2(CCN(Cc3ccccc3F)CC2)C1` (stereo not given) returned an RP-LC retention time of 544 s.

`Cc1ccc2c(Nc3ccc4c(c3)OCO4)c(C(=O)N3CCOCC3)cnc2n1` had an RP-LC retention time of 765 s.

Molecule `CCCCN(C)S(=O)(=O)c1cc(-c2nc(C)cs2)n(CC(=O)N2CCCCC2)c1` displayed an RP-LC retention time of 1080 s.

The molecule `CCOC(=O)Cc1csc(NC(=O)c2ccc(-c3nc4ccccc4s3)s2)n1` yielded an RP-LC retention time of 1010 s.

As to `COc1ccc(-c2cc(-c3nc4c5sc6nc(C)cc(C)c6c5ncn4n3)[nH]n2)cc1OC`, the RP-LC retention time came out at 919 s.

For the molecule `CCn1cc(-c2nc(-c3ccc(F)cc3)no2)c(=O)c2cc(F)c(N3CCOCC3)cc21`, the RP-LC retention time amounted to 951 s.

`O=C(NC(c1ccccc1)c1nnc(N2CCCCC2)o1)c1ccc2c(c1)OCO2` (stereo not given) had an RP-LC retention time of 847 s.

Regarding `O=C(Cc1csc(NC(=O)c2ccc[nH]c2=O)n1)NCc1cccs1`, the RP-LC retention time was determined as 626 s.

In turn, `Cn1nccc1-c1cccc(-c2noc(/C=C/c3ccccc3Cl)n2)c1` registered an RP-LC retention time of 1290 s.

Molecule `CSc1ccc(NC(=O)Nc2ccccc2C(N)=O)cc1` returned an RP-LC retention time of 846 s.

`O=C(c1cc(C2CC2)[nH]n1)N1CCC(Cc2ccccc2)CC1`: the RP-LC retention time was found to be 902 s.

Molecule `O=C(N[C@H]1C[C@@H]2C[C@H]1CN2C(=O)NCc1cccc(F)c1)c1cccs1` yielded an RP-LC retention time of 738 s.

`CC(C)NC(=O)c1ccc(OCC2CCCN(C(=O)c3cccc(Cl)c3)C2)cc1` (stereo not given) had an RP-LC retention time of 899 s.

In the case of `Fc1ccc(C2Cn3nnc(-c4nc(-c5ccc(OC(F)(F)F)cc5)no4)c3CO2)cc1` (stereo not given), the RP-LC retention time is 1250 s.

As for `CCc1cccc(NC(=O)Nc2cnn(-c3ncc(N(C)C)cn3)c2)c1`, the RP-LC retention time was 772 s.

In turn, `COCCOC1CCC12CCN(C(=O)c1occc1C)CC2` (stereo not given) had an RP-LC retention time of 779 s.

Regarding `CC1CCC(C(C)C)C(NC(=O)c2ccncc2)C1` (stereo not given), the RP-LC retention time was 894 s.

`COc1ccc2nc(CN3CCN(S(=O)(=O)N(C)C)CC3)[nH]c2c1` came in with an RP-LC retention time of 556 s.

`CCN(CC)C(=O)c1ccc(C2=CC3(CCNCC3)Oc3cccc(O)c32)cc1` displayed an RP-LC retention time of 725 s.

Consider `CC(=O)Nc1cc(-c2nc(-c3ccc4oc(C)nc4c3)no2)ccc1C`, for which the RP-LC retention time was found to be 803 s.

Turning to `O=C(C1CCCN(c2cnc3nccnc3c2)C1)N1CCN(c2ccccn2)CC1` (stereo not given), the RP-LC retention time came to 568 s.

`CC(C(=O)N1CCOCC1)C1CCN(C(=O)c2ccc3nc(-c4ccccc4)oc3c2)CC1` (stereo not given): the RP-LC retention time worked out at 718 s.

Consider `Cc1cc(C)c(C)c(S(=O)(=O)N2CCC(OCc3noc(C4CCCO4)n3)CC2)c1C` (stereo not given), for which the RP-LC retention time turned out to be 1110 s.

In turn, `CN1CCN(c2ncncc2N2CCC(C(=O)NCc3ccc(F)cc3Cl)CC2)CC1` came in with an RP-LC retention time of 572 s.

Regarding `CC1=C(c2ccc(F)cc2)S(=O)(=O)N=C1N1CCC(NC(=O)c2ccoc2)CC1`, the RP-LC retention time is 747 s.

In turn, `CCOC(=O)c1noc2nc(C)nc(NCCc3ccc(Cl)cc3)c12` showed an RP-LC retention time of 1210 s.

The molecule `Cc1ccc(N2CC(c3nc(-c4ccc5c(c4)ncn5C)no3)CC2=O)cc1C` (stereo not given) came in with an RP-LC retention time of 702 s.

Consider `O=C(NCc1ccc2c(c1)OCO2)C(=O)NCC1(CO)CC1`, for which the RP-LC retention time was found to be 627 s.

`O=C(Nc1cccc(Cl)c1)Nc1c(-c2ccc(F)cc2)nc2ccccn12` showed an RP-LC retention time of 730 s.

`COc1ccc(NC(=O)C2CCc3nc(N4CCCC4)ncc3C2)c(C)c1` (stereo not given) yielded an RP-LC retention time of 698 s.

In turn, `CCOC(=O)N1CCN(C(=O)CSc2ccc(-c3sc(C)nc3C)nn2)CC1` returned an RP-LC retention time of 632 s.

The molecule `O=C(CSc1nccn1-c1ccc(Cl)cc1)NCc1ccco1` showed an RP-LC retention time of 655 s.

For the molecule `CCn1c(=O)c(C)nc2cc(-c3noc(-c4ccc(N(C)C)cc4)n3)ccc21`, the RP-LC retention time came out at 1140 s.

As for `O=C(NCCN1CCCC1)C1CCCN(c2ccc(Sc3ccc(Br)cc3)nn2)C1` (stereo not given), the RP-LC retention time amounted to 663 s.

`Cc1oc2c(c1C(=O)NCCc1ccccc1Cl)C1=NCCN1C=N2` had an RP-LC retention time of 651 s.

`Cc1nc(-c2noc(-c3ccc(F)cc3)n2)cn1CC(=O)NCc1ccc(F)cc1` gave an RP-LC retention time of 832 s.

`CCS(=O)(=O)N1CCCc2cc(C(=O)NC(C)(C)C)ccc21` came in with an RP-LC retention time of 826 s.

`Cc1ccccc1Cn1c(N2CCC(C(=O)N3CCN(c4ccccn4)CC3)CC2)nc2ccccc21` gave an RP-LC retention time of 587 s.

On to `Cc1cc(C)c(C(=O)N2CCC(CC(=O)NCc3cccc(Cl)c3)CC2)[nH]1`, for which the RP-LC retention time came out at 804 s.

`CCCCOc1ccc(C(=O)NCc2ccco2)cc1` displayed an RP-LC retention time of 865 s.

Molecule `COc1cccc(-c2ccc(=O)n(Cc3nc(-c4ccc(Cl)cc4)no3)n2)c1` had an RP-LC retention time of 1110 s.

With `CC1=C(c2ccc(C)cc2)S(=O)(=O)N=C1N1CCC(NC(=O)c2cc(C)n(C)n2)CC1`, the RP-LC retention time worked out at 769 s.

Consider `Cc1ccc(S(=O)(=O)N2CCCCC2)cc1-c1nnc(-c2ccc(F)cc2)o1`, for which the RP-LC retention time was determined as 1110 s.

Regarding `CCOC(=O)N1CCN(C(=O)c2cc(-c3ccco3)on2)CC1`, the RP-LC retention time was found to be 735 s.

In the case of `CCC(c1cccs1)N1C(=O)[C@H]2CN(S(=O)(=O)c3ccc(C(C)C)cc3)C[C@H]2C1=O` (stereo not given in full), the RP-LC retention time was 1140 s.

Regarding `COc1cc(C)c(Cl)cc1S(=O)(=O)N1CCN(C(=O)c2ccco2)CC1`, the RP-LC retention time is 797 s.

Consider `CCOCC(=O)Nc1c(C)nc2ccc(Cl)cn2c1=O`, for which the RP-LC retention time worked out at 583 s.

For `CCOc1ccc(-c2noc(Cn3nc(-c4ccc(C)cc4)ccc3=O)n2)cc1`, the RP-LC retention time is 1160 s.

`CCn1cc(-c2ccc(Cl)cc2)cc1C(=O)N1CCC2(CC1)OCCO2` registered an RP-LC retention time of 1040 s.

In turn, `Cc1nn(-c2nc(-c3ccc(F)cc3)cs2)c(C)c1CC(=O)Nc1cccc(C(F)(F)F)c1` came in with an RP-LC retention time of 1280 s.

`CNC(=O)Cc1ccc(NS(=O)(=O)Cc2ccc(Cl)cc2)cc1` showed an RP-LC retention time of 703 s.

`COc1cc(CCC(=O)O)on1` returned an RP-LC retention time of 658 s.

On to `O=C(Cc1nc(-c2ccccc2)n[nH]1)Nc1cccc(Cl)c1`, for which the RP-LC retention time was 800 s.

On to `COc1ccc(-c2nc(-c3ccc(NS(C)(=O)=O)cc3)no2)c(OC)c1`, for which the RP-LC retention time is 885 s.

In turn, `CCN1C(=O)c2cccnc2Sc2cc(CNC(=O)c3c(OC)cccc3OC)ccc21` showed an RP-LC retention time of 784 s.

For the molecule `CCn1nccc1C(=O)N1CCN(c2cc(-c3ccccc3)[nH]n2)CC1`, the RP-LC retention time came to 694 s.

As for `COCCn1cc(C(=O)NCc2c(F)cccc2F)c2nn(-c3ccccc3)c(=O)c-2c1`, the RP-LC retention time was determined as 809 s.

The molecule `CCCN(Cc1ccc(Cl)cc1)Cc1cc(=O)n2ccc(C)cc2n1` yielded an RP-LC retention time of 669 s.

On to `O=C(CCc1ccc2[nH]ccc2c1)N1CCN(c2ccc(F)cc2)CC1`, for which the RP-LC retention time was 865 s.

In turn, `COc1ccccc1CC(=O)NC1CCN(Cc2c(C)noc2C)C1` (stereo not given) came in with an RP-LC retention time of 584 s.

`Cc1csc(-c2ccc(N3CCN(C(=O)c4ccoc4)CC3)nc2)n1`: the RP-LC retention time stood at 716 s.

For the molecule `O=C(Cn1cnc2nc(N3CCCC(C(=O)NC4CC4)C3)sc2c1=O)NC1CCCC1` (stereo not given), the RP-LC retention time is 628 s.

The molecule `CC(=O)c1cccc(NC(=O)N2CCN(c3nc4ccccc4n3C)CC2)c1` came in with an RP-LC retention time of 566 s.

`COC(=O)c1c(N)n(CCc2ccccc2)c2nc3ccccc3nc12`: the RP-LC retention time was 711 s.

`Cc1ccsc1C(=O)Nc1ccccc1Sc1c(C)c(C)nc2nc(-c3ccccc3)nn12`: the RP-LC retention time amounted to 1120 s.

The molecule `CC(C)n1cnc(S(=O)(=O)N2CCCC(C(=O)Nc3cccc(Br)c3)C2)c1` (stereo not given) returned an RP-LC retention time of 898 s.

`O=C(c1ccccc1)N1CCCCC1c1nncn1CC1CC1` (stereo not given) came in with an RP-LC retention time of 592 s.

With `Cc1ccc(N2CC(c3noc(-c4cc(C)cc(C)c4)n3)CC2=O)cc1` (stereo not given), the RP-LC retention time came to 1200 s.

For the molecule `O=C(c1ccc(-c2cccnc2)nc1)N1CCN(c2cccc(Cl)c2)CC1`, the RP-LC retention time stood at 726 s.
